Test results published in patent US10487045B2, “Adamantane derivative and use thereof” (TOHOKU UNIVERSITY, priority 2016, dated 2019).

Molecular target: T1, Kir6.2 channel (Mus musculus, UniProt Q61743)
T1 construct: expressed in transfected cells; host or cells: Neuro2A (N2A) cells, transient transfection with pcDNA3.1-Kir6.2 (gift of Dr. Toru Ishizuka, Tohoku University)
T1 sequence (Q61743 1-390): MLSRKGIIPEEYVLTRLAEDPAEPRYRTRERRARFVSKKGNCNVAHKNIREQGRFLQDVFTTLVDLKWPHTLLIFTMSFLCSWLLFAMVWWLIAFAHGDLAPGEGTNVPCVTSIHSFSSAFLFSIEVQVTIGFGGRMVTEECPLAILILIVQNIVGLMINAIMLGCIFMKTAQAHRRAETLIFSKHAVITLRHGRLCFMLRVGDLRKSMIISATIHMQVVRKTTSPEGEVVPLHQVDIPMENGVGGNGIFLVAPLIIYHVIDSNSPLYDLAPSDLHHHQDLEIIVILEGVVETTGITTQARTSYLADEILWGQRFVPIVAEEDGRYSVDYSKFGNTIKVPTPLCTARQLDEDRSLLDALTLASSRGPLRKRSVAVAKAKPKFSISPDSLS
Experiment: CaMKII activation in N2A cells overexpressing Kir6.2 channel (immunoblotting, anti-phosphorylated CaMKII antibody)
Type: cell-based
Details: 10 nM, one hour, Kir6.2 channel overexpressing N2A cells; control without compound = 100%
Method: A plasmid vector having cDNA of Kir6.2 channel inserted therein: pcDNA3.1-Kir6.2, was obtained from Dr. Toru Ishizuka (Graduate School of Life Sciences, Tohoku University). The plasmid vector, pcDNA3.1-Kir6.2, was conditioned in accordance with the manual attached to GenElute HP Plasmid Maxiprep Kit (manufactured by Sigma-Aldrich). A culture solution (composition: DMEM culture solution 450 mL containing 50 ml of bovine serum and 100 units of penicillin/streptomycin) of Neuro2A cells (N2A cells, the National Instituted of Biomedical Innovation) cultured in DMEM culture solution (Gibco) was exchanged with Opti-Mem (Gibco)(containing Lipofectamine R2000 (1 μg/1 ml)) containing pcDNA3.1-Kir6.2 (1 μg/μl) conditioned above, and cultured for 5 hours to obtain N2A cells overexpressing Kir6.2 channel. Exchange with the DMEM culture solution was again performed and culture was carried out for two days. Thereafter, memantine (manufactured by Sigma-Aldrich) and the compound of the present invention (n=4 per group) were added in the culture solutions (DMEM, Gibco) so as to obtain a concentration of 10 nM based on the culture solution, and the culture solutions were allowed to stand still for one hour. Thereafter, Kir6.2 channel overexpressing N2A cells were collected and an SDS sample buffer was added to the N2A cells to prepare a suspension. The suspension was subjected to immunoblotting by use of an anti-phosphorylated CaMKII antibody (Fukunaga K et al., J. Biol. Chem. 1992, 267, 22527-22533) as a primary antibody and an anti-rabbit IgG antibody (manufactured by SouthernBiotech) as a secondary antibody (other conditions except the aforementioned antibodies were the same as those employed in ordinary immunoblotting), to investigate activation of CaMKII. As a result, in TP-009, TP-010, TP-011, TP-012, TP-014, TP-015, TP-048, TP-049, TP-050, TP-051, TP-052, TP-053, bands showing a reaction with the antibody against phosphorylated CaMKII were obtained. It was confirmed that activation of CaMKII is enhanced. In FIG. 1, the result of the case (control: c) where a test compound was not added is regarded as 100%. CaMKII activation of the cases containing memantine, TP-009, TP-010, TP-011, TP-012, TP-014, TP-015, TP-048, TP-049, TP-050, TP-051, TP-052, TP-053 (corresponding to M, 9, 10, 11, […], 15, 48, 49, 50, 51, 52 and 53, respectively) were shown in FIG. 1.

SMILES | activation of CaMKII (phosphorylated CaMKII bands)
CCOC(=O)[C@H](NC(C)=O)[C@@H]1[C@@H]2C[C@H]3C[C@@](Cl)(C2)C[C@]1(O)C3 [TP-011, ethyl (R)-2-acetamido-2-((1R,2S,3R,5R,7R)-5-chloro-1-hydroxyadamantan-2-yl)acetate] | enhanced
CCOC(=O)[C@@H](NC(C)=O)[C@@H]1[C@@H]2C[C@H]3C[C@@](Cl)(C2)C[C@]1(O)C3 [TP-010, ethyl (S)-2-acetamido-2-((1R,2S,3R,5R,7R)-5-chloro-1-hydroxyadamantan-2-yl)acetate] | enhanced
COC(=O)[C@@H](NC(=O)C(F)(F)F)[C@@H]1[C@@H]2C[C@H]3C[C@@](Cl)(C2)C[C@]1(OC(=O)C(F)(F)F)C3 [TP-012, (1R,2S,3R,5R,7R)-5-chloro-2-((S)-2-methoxy-2-oxo-1-(2,2,2-trifluoroacetamido)ethyl)adamantan-1-yl 2,2,2-trifluoroacetate] | enhanced
N[C@H](C(=O)O)[C@@H]1[C@@H]2C[C@H]3C[C@@](O)(C2)C[C@]1(O)C3 [TP-015, (S)-2-amino-2-((1R,2S,3R,5R,7S)-1,5-dihydroxyadamantan-2-yl)acetic acid] | enhanced
CC(=O)O[C@@H](c1ccccc1)[C@@H]1[C@@H]2C[C@H]3C[C@@](N=[N+]=[N-])(C2)C[C@]1(O)C3 [TP-009, (R)-((1R,2S,3R,5R,7S)-5-azido-1-hydroxyadamantan-2-yl)(phenyl)methyl acetate] | enhanced
O=C(N[C@@H](c1cccnc1)[C@H]1[C@H]2C[C@@H]3C[C@](Cl)(C2)C[C@@]1(O)C3)C(F)(F)F [TP-051, N—((R)-((1S,2R,3S,5S,7S)-5-chloro-1-hydroxyadamantan-2-yl)(pyridin-3-yl)methyl)-2,2,2-trifluoroacetamide] | enhanced
O=C(N[C@@H](c1ccccc1)[C@H]1[C@H]2C[C@@H]3C[C@](Cl)(C2)C[C@@]1(O)C3)C(F)(F)F [TP-048, N—((R)-((1S,2R,3S,5S,7S)-5-chloro-1-hydroxyadamantan-2-yl)(phenyl)methyl)-2,2,2-trifluoroacetamide] | enhanced
CO[C@@]12C[C@H]3C[C@@H](C1)[C@H]([C@@H](NC(=O)C(F)(F)F)c1ccccc1)[C@](OC(=O)C(F)(F)F)(C3)C2 [TP-053, (1S,2R,3S,5S,7R)-5-methoxy-2-((R)-phenyl(2,2,2-trifluoroacetamido)methyl)adamantan-1-yl 2,2,2-trifluoroacetate] | enhanced
O=C(N[C@@H](c1ccccc1)[C@H]1[C@@H]2C[C@H]3C[C@@H](C2)C[C@]1(OC(=O)C(F)(F)F)C3)C(F)(F)F [TP-049, (1S,2R,3S,5R,7S)-2-((R)-phenyl(2,2,2-trifluoroacetamido)methyl)adamantan-1-yl 2,2,2-trifluoroacetate] | enhanced
O=C(N[C@@H](c1ccccc1)[C@H]1[C@@H]2C[C@H]3C[C@@H](C2)C[C@]1(O)C3)C(F)(F)F [TP-052, 2,2,2-trifluoro-N—((R)—((S,2R,3S,5R,7S)-1-hydroxyadamantan-2-yl)(phenyl)methyl) acetamide] | enhanced
COCCO[C@@]12C[C@H]3C[C@@H](C1)[C@H]([C@@H](NC(=O)C(F)(F)F)c1ccccc1)[C@](OC(=O)C(F)(F)F)(C3)C2 [TP-050, (1S,2R,3S,5S,7R)-5-(2-methoxyethoxy)-2-((R)-phenyl(2,2,2-trifluoroacetamido)methyl)adamantan-1-yl 2,2,2-trifluoroacetate] | enhanced
